Assay results: paper PMC7734281, “Functionalized Oxoindolin Hydrazine Carbothioamide Derivatives as Highly Potent Inhibitors of Nucleoside Triphosphate Diphosphohydrolases” (Frontiers in Pharmacology, 2020)
“Also recorded” adds a separate entry of the source.

Assays:
mice pancreatic islets [1] = experiment: Glucose stimulated insulin secretion in isolated mice islets (ELISA); format: cell-based, BALB/c mice; details: 16.7 mM glucose; for Effect on glucose stimulated insulin secretion: compound 200 µM, 1 h, 37°C
Procedure: Six to eight week old BALB/c mice, weighing 30–40 g, were used in the study. These mice were obtained from the animal house of COMSATS University Islamabad, Abbottabad Campus and placed under standard temperature (25 ± 2°C) and humidity (50–55%) conditions with an alternate 12-h light/dark cycle. All the experimental animals were provided with a continuous supply of food and water. The animals were handled according to internationally accepted guidelines of animal care and use. Moreover, this study was reviewed and approved by Research Ethics Committee, Department of Pharmacy, COMSATS University Islamabad, Abbottabad Campus. (Protocol number: PHM.Eth./CS-M01-020-1609)
The islets were isolated from mice pancreas as previously described, by a process involving collagenase digestion ([Hameed et al., 2018]). Briefly, mice were anesthetized with sodium thiopental (30 mg kg) and sacrificed by cervical dislocation to block the flow of blood. Immediately, mice were transferred to biological hood and their abdominal cavity was opened completely by making an incision on abdomen. In order to stop the bile flow toward duodenum, ampulla was located and clamped under dissection microscope. Then, distention of pancreas was carried out by injecting 3 ml of collagenase solution (1 mg/ml) through common bile duct. The distended pancreas was removed as a whole, transferred to a 50 ml tube and digested in collagenase solution at 37°C. After 15 min, digestion was stopped by placing the tube on ice and 20 ml of Hank’s Balanced Salt Solution (HBSS) was added to it. Thus the digested islets were washed with HBSS (two to three times) by centrifugation (1,000 rpm) for 1 min at 4°C. Finally, islets were purified by passing through a cell strainer (70 µm) and isolated manually (by hand picking) under stereomicroscope (Euromex, Arnhem, Netherlands). All the purification and isolation procedures were carried out in HBSS, containing no magnesium, calcium and phenol red.
Krebs-Ringer bicarbonate buffer (KRBB) was used as an incubation medium for islets and was composed of NaCl (118 mM), KCl (4.7 mM), CaCl2 (1.9 mM), MgSO4 (1.2 mM), NaHCO3 (25 mM), 4-(2-hydroxyethyl)-1-piperazineethanesulfonic acid (HEPES, 10 mM) and bovine serum albumin (0.1%). The pH of KRBB was maintained at 7.4. The isolated islets were size-matched and pre-incubated (3 islets/tube) for 45 min at 37°C in KRBB, supplemented with 3 mM glucose. Thereafter, incubation medium was replaced with fresh KRBB (containing 16.7 mM glucose) and islets were incubated for 60 min at 37°C with or without test substance(s). After incubation, supernatant was collected and stored at −40°C until further use. Finally, collected samples were properly diluted and insulin secretion was estimated with ultra-sensitive mouse insulin ELISA kit (Crystal Chem Inc., Downers Grove, United States) according to the manufacturer’s instructions. The absorbance was measured at 450 nm and insulin secretion was normalized for number of islets used. ([Hameed et al., 2018]).

h-NTPDase2 = biological target: T1, h-NTPDase2 (Homo sapiens, UniProt Q9Y5L3); experiment: h-NTPDase2 inhibition, malachite green assay; format: biochemical; details: Lineweaver-Burk plot
T1 construct: made in house; host or cells: COS-7 cells, transient transfection; crude protein extract after sonication
T1 sequence (Q9Y5L3 1-495): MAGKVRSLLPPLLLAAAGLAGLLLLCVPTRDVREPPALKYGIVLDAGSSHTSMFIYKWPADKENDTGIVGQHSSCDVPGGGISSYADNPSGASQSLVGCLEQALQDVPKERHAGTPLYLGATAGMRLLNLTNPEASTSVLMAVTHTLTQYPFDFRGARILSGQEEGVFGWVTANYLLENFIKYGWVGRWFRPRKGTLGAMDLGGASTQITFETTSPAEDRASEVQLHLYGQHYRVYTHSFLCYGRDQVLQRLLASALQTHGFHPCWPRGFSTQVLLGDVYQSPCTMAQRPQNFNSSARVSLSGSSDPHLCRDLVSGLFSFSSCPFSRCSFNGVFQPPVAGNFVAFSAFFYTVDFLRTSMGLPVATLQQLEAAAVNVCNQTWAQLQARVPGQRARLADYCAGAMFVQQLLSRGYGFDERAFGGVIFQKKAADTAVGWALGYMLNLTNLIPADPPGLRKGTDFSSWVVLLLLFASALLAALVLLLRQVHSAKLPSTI

[2] = system: ectonucleotidase activity in islets homogenate; experiment: Ectonucleotidase activity of islet homogenate (malachite green, Pi release); format: biochemical, mice; details: for Effect on ectonucleotidase activity in islets homogenate: compound 100 µM, 100 µM ATP as substrate, versus control
Procedure: Islets were isolated and homogenized, according to the previously reported method ([Hedeskov and Capito, 1974]). After isolation, islets were washed thrice with HBSS and suspended in an ice-cold buffer containing sucrose (0.25 M), ethylenediaminetetraacetic acid (EDTA,1 mM) and tris-HCl (5 mM), maintained at pH 7.0. The resulting suspension was diluted with assay buffer, composed of tris-HCl (50 mM) and CaCl2 (5 mM). Afterward, these islets were sonicated for 30 s leading to disruption of islets and formation of a homogenate. Cellular debris was removed by centrifugation at 15,000 rpm for 10 min (4°C). The supernatant was collected and stored on ice. Protein concentration was estimated by Bradford method, using bovine serum albumin as reference standard ([Bradford, 1976]).
In order to determine the effect of compounds on ectonucleotidase activity in mice islets, standard curve based procedure was used where KH2PO4 was used as a standard. A stock solution of KH2PO4 (1 mM) was prepared in assay buffer that was used to prepare the working solutions of lower concentrations (0–100 µm). A standard curve was generated by incubating increasing concentration of KH2PO4 with buffer and malachite green reagent.
The assay was carried out in tris-buffer (pH 7.4) containing tris-HCl (50 mM) and CaCl2 (5 mM), as previously described ([Lavoie et al., 2010]). Compounds were dissolved in DMSO (10%) and tested at a concentration of 100 µM. The assay was started by adding 10 µl of test compound solution to 56 µl of assay buffer, followed by the addition of 6 µl of homogenate (i.e., 3 µg of protein). The mixture was incubated at 37°C for 10 min and then 10 µl of ATP (100 µM) was added to start the reaction. Reaction mixture was again placed in incubator at 37°C for 15 min and then reaction was stopped by adding 100 µl of trichloroacetic acid (10%). […] Finally, samples were mixed with malachite green reagent in an appropriate proportion and released Pi was determined by using standard curve. […] All the experiments were carried out in triplicate and enzyme activity was expressed as […] of Pi/min/mg of protein.

mice pancreatic islets [3] = experiment: Glucose stimulated insulin secretion in isolated mice islets (ELISA); format: cell-based, BALB/c mice; details: basal glucose 3 mM

Mode of inhibition of h-NTPDase2 (h-NTPDase2) | SMILES | Effect on glucose stimulated insulin secretion (mice pancreatic islets [1]) | Effect on ectonucleotidase activity in islets homogenate [2] | Effect on insulin secretion at basal glucose level (mice pancreatic islets [3]) | Dose-dependent effect on insulin secretion (mice pancreatic islets [1]; 10–200 µM) | Dose response of ectonucleotidase activity in islet homogenate ([2]; different concentrations, 100 µM ATP, Pi release)
– | O=C1Nc2ccccc2/C1=N/NC(=S)Nc1ccc(Cl)cc1 [8c, (Z)-N-(4-chlorophenyl)-2-(2-oxoindolin-3-ylidene)hydrazine-1-carbothioamide] | no significant effect on insulin secretion; also recorded: did not show any significant effect on insulin secretion | – | – | – | –
competitive | COc1ccc(OC)c(NC(=S)N/N=C2\C(=O)Nc3ccccc32)c1 [8j, (Z)-N-(2,5-dimethoxyphenyl)-2-(2-oxoindolin-3-ylidene)hydrazine-1-carbothioamide] | – | – | – | – | –
– | Cc1ccc(C(=O)Nc2ccc(S(=O)(=O)O)c3cc(S(=O)(=O)O)cc(S(=O)(=O)O)c23)cc1NC(=O)c1cccc(NC(=O)Nc2cccc(C(=O)Nc3cc(C(=O)Nc4ccc(S(=O)(=O)O)c5cc(S(=O)(=O)O)cc(S(=O)(=O)O)c45)ccc3C)c2)c1 [Suramin, reference compound] | Neither suramin nor isatin had any significant effect | significantly reduced the enzyme activity | – | – | –
– | CCNC(=S)N/N=C1\C(=O)Nc2ccccc21 [8m, (Z)-N-ethyl-2-(2-oxoindolin-3-ylidene)hydrazine-1-carbothioamide] | potently stimulated insulin secretion; also recorded: significant increase in glucose stimulated insulin secretion | significantly decreased the ectonucleotidase activity; also recorded: significantly reduced the enzyme activity; also recorded: significant reduction in ectonucleotidase activity; also recorded: significantly reduced ectonucleotidase activity | no effect on insulin secretion; also recorded: did not produce any significant effect | dose dependent increase in insulin release; also recorded: dose dependent increase in insulin secretion | dose dependent decrease in enzyme activity
